Source: patent US5430150A, “Retroviral protease inhibitors” (American Cyanamid Company, priority 1992, dated 1995)

Experiments:
[1] = test system: HIV-1 strain IIIB in T lymphoid MT-2 cell lines; assay: inhibition of growth of HIV-1 strain IIIB in T lymphoid MT-2 cell lines (metabolic MTT dye); format: cell-based
Experimental: In Table 2, data is shown for the ability of these compounds to inhibit growth of HIV-1 strain IIIB in T lymphoid MT-2 cell lines. The cell line is challenged by free virons selected to result in 90-95% cell death (CPE) by day 5. The protease inhibitor compound is then added in the stated concentration. After 5 days, the surviving cells are measured using metabolic MTT dye.

HIV-1 protease = HIV-1 protease (Human immunodeficiency virus type 1 group M subtype B, UniProt P04585); assay: biochemical; format: biochemical; conditions: Activity of Compounds as Enzyme Inhibitor
Experimental: IC50 values for enzyme inhibition are determined using HIV-1 and Amersham's HIV proteinase [^125 I]-scintillation proximity assay (SPA).
Amersham's HIV proteinase [^125 I]-SPA system is a commercial assay incorporating the scintillation proximity assay (SPA) principle available from Amersham International PLC, Bucks, England.
The SPA microspheres provided by Amersham have the substrate linked directly to the surface through a streptavidin-biotin link. The substrate is a 12 residue peptide designed specifically for this application utilizing current knowledge of known cleavage sites for the enzyme and analogue substrate studies. The sequence of the substrate is: [drawing 22]
The peptide is monoiodinated on the tyrosine residue and biotinylated through the epsilon-NH2 group on the lysine. It is linked to the SPA bead via a streptavidin-link. The beads are suspended in a buffer consisting of 5 mM DTT, 1 mM EDTA, 10% w/v glycerol, 0.05% W/v sodium azide, 0.01% v/v Triton X-100 in 25 mM sodium citrate buffer pH 5.5.
The enzyme cleaves at the Phe-Phe bond releasing the ^125 I fragment from the bead. This event causes the removal of detectable signal from the microsphere. […] The rate of reduction in signal is proportional to the activity of the enzyme. The obtained data is used to calculate the IC50 values found in Table 1.

[2] = mouse plasma level after IP or oral administration; format: in vivo; conditions: mice; for time for which plasma concentrations of >0.13 microgram/ml are achieved: aqueous liposomal formulation

## CC[C@H](C)[C@H](NC(=O)[C@H](Cc1ccccc1)CC(O)CN1C[C@H]2CCCC[C@H]2C[C@H]1C(=O)NC(C)(C)C)C(=O)NCc1nc2ccccc2[nH]1 (single isomer, unassigned) [Example 24B, [3S-[2[alphaS*(1R*,2R*),gammaS*(or R*)],3alpha,4abeta,8abeta]]-N-[1-[[(1H-Benzimidazol-2-ylmethyl)amino]carbonyl]-2-methylbutyl]-3-[[(1,1-dimethylethyl)amino]carbonyl]decahydro-gamma-hydroxy-alpha-(phenylmethyl)-2-isoquinolinepentanamide]
[1]; 0.010 μg/ml, 5 days
  % Inhibition at concentration 0.010 μg/ml: 16.2%
[1]; 0.039 μg/ml, 5 days
  % Inhibition at concentration 0.039 μg/ml: 81.4%
[1]; 0.156 μg/ml, 5 days
  % Inhibition at concentration 0.156 μg/ml: 93.0%
[1]; 0.625 μg/ml, 5 days
  % Inhibition at concentration 0.625 μg/ml: 94.7%
[1]; 2.5 μg/ml, 5 days
  % Inhibition at concentration 2.5 μg/ml: 94.9%
[1]; concentration >0.13 microgram/ml
  inhibition of HIV-1 strain IIIB viral growth in MT-2 cell lines: > 90%
HIV-1 protease
  IC50: 72.8 nM
[2]; IP 8.3 mg/kg
  time for which plasma concentrations of >0.13 microgram/ml are achieved: 2.8 h
[2]; IP 16.6 mg/kg
  time for which plasma concentrations of >0.13 microgram/ml are achieved: 4.2 h
[2]; oral 16.6 mg/kg (FIG. 1)
  time for which plasma concentrations >0.13 microgram/ml are maintained: 2 h
